Consider 29 compounds from paper PMC7587356, “High-Throughput Screening for Inhibitors of the SARS-CoV-2 Protease Using a FRET-Biosensor” (Molecules, 2020).

Structures can show the parent of a compound that is named as a salt. Where two headings read alike, the source gives them in different places.

The target of this assay is SARS-CoV-2 3CLpro (Severe acute respiratory syndrome coronavirus 2, UniProt P0DTD1). Briefly: biochemical. In kind it is biochemical. Details: Replicate_1 / Replicate_2 / mean / mean (LOPAC_screen_w_protease): unit not given here. The conditions noted are these: for inhibition at 5 µM: 4 h.
The mark [1] stands for this setting: sheet LOPAC_screen_w_protease, primary screen with protease, 5 µM, mean of two replicates, read-out: mean.
The mark [2] stands for this setting: sheet LOPAC_screen_w_protease, primary screen with protease, 5 µM, replicate 1, read-out: Replicate_1.
Where [3] appears, read: sheet LOPAC_screen_w_protease, primary screen with protease, 5 µM, replicate 2, read-out: Replicate_2.
[4] abbreviates: sheet LOPAC_screen_w_protease, primary screen with protease, compound at 5 µM, mean of two replicates.
[5] abbreviates: sheet LOPAC_screen_w_protease, primary screen with protease, compound at 5 µM, replicate 1.
Where [6] appears, read: sheet LOPAC_screen_w_protease, primary screen with protease, compound at 5 µM, replicate 2.
[7] abbreviates: LOPAC1280 primary screen with protease, 5 µM compound, replicate 1, read-out: Replicate_1 (LOPAC_screen_w_protease).
Where [8] appears, read: LOPAC1280 primary screen with protease, 5 µM compound, replicate 2, read-out: Replicate_2 (LOPAC_screen_w_protease).
Where [9] appears, read: LOPAC1280 primary screen with protease, 5 µM compound, mean of two replicates.
The mark [10] stands for this setting: sheet LOPAC_screen_w_protease, LOPAC1280 primary screen at 5 µM, with protease, mean of the two replicates.
Where [11] appears, read: sheet LOPAC_screen_w_protease, LOPAC1280 primary screen at 5 µM, with protease, replicate 1.
Where [12] appears, read: sheet LOPAC_screen_w_protease, LOPAC1280 primary screen at 5 µM, with protease, replicate 2.

With `O=C(O)CCCCCCCC(=O)O` [Azelaic acid], the inhibition at 5 µM reads like this: (sheet LOPAC_screen_w_protease, LOPAC1280 primary screen at 5 µM, with protease, mean of the two replicates, read-out: mean) 0.767%; (sheet LOPAC_screen_w_protease, LOPAC1280 primary screen at 5 µM, with protease, replicate 1, read-out: Replicate_1) 1.56%; (sheet LOPAC_screen_w_protease, LOPAC1280 primary screen at 5 µM, with protease, replicate 2, read-out: Replicate_2) -0.0221%.

`O=C(O)CCC/C=C\C[C@@H]1[C@@H](/C=C/[C@H](O)C2Cc3ccccc3C2)[C@@H](F)C[C@@H]1O` [AL-8810] had a Replicate_1 of 0.247, a Replicate_2 of 1.148 and a mean of 0.6974.

Regarding `CCCCCCCCCCCCC/C=C/[C@@H](O)[C@@H](N)CO` [Sphingosine], the inhibition at 5 µM under setting [1] was -0.887%, the inhibition at 5 µM under setting [2] was -1.81% and the inhibition at 5 µM under setting [3] was found to be 0.0317%.

On to `CCCN(CCc1ccccc1)C1CCc2c(O)cccc2C1.Cl` (racemic) [(±)-PPHT hydrochloride], for which, for the setting “sheet LOPAC_screen_w_protease, LOPAC1280 at 5 µM, mean of two replicates”, the mean was determined as 1.126. Moreover, the Replicate_1 (sheet LOPAC_screen_w_protease, LOPAC1280 at 5 µM, replicate 1) is recorded as 1.344. For the same compound, the Replicate_2 (sheet LOPAC_screen_w_protease, LOPAC1280 at 5 µM, replicate 2) stood at 0.9086.

For `CC(C)NCC(O)COc1cccc2ccccc12.Cl` (racemic) [(±)-Propranolol hydrochloride], the Replicate_1 is recorded as 2.83, the Replicate_2 was 6.763 and the mean was 4.797.

For the compound `Cc1oncc1C(=O)Nc1ccc(C(F)(F)F)cc1` [Leflunomide], the inhibition at 5 µM by setting is: (sheet LOPAC_screen_w_protease, LOPAC1280 at 5 µM, mean of two replicates, read-out: mean) 1.27%; (sheet LOPAC_screen_w_protease, LOPAC1280 at 5 µM, replicate 1, read-out: Replicate_1) 0.0888%; (sheet LOPAC_screen_w_protease, LOPAC1280 at 5 µM, replicate 2, read-out: Replicate_2) 2.44%.

As to `CCn1ccnc1CC1COc2ccccc2O1` (stereo not drawn) [Imiloxan hydrochloride], the inhibition at 5 µM (sheet LOPAC_screen_w_protease, primary screen with protease, compound at 5 µM, mean of two replicates, read-out: mean) came out at 3.1%; the inhibition at 5 µM (sheet LOPAC_screen_w_protease, primary screen with protease, compound at 5 µM, replicate 1, read-out: Replicate_1) came to 4.11%; the inhibition at 5 µM (sheet LOPAC_screen_w_protease, primary screen with protease, compound at 5 µM, replicate 2, read-out: Replicate_2) turned out to be 2.09%.

On to `CC(CN(C)C)CN1c2ccccc2CCc2ccccc21` (stereo not drawn) [Trimipramine maleate], for which the inhibition at 5 µM (sheet LOPAC_screen_w_protease, primary screen with protease, mean of two replicates, read-out: mean) was determined as 2.36%; the inhibition at 5 µM (sheet LOPAC_screen_w_protease, primary screen with protease, replicate 1, read-out: Replicate_1) amounted to 3.17%; the inhibition at 5 µM (sheet LOPAC_screen_w_protease, primary screen with protease, replicate 2, read-out: Replicate_2) was 1.55%.

In turn, Ceramide registered a mean under setting [4] of 2.999. Besides, the Replicate_1 under setting [5] was 2.718. Also, the Replicate_2 under setting [6] was determined as 3.28.

With `Cl.NCC(O)c1cc(O)c(O)cc1F` (stereo not drawn) [6-Fluoronorepinephrine hydrochloride], under setting [4], the mean is on record as 2.749. This compound returned a Replicate_1 under setting [5] of 2.331. The compound further showed a Replicate_2 under setting [6] of 3.1667.

`N#Cc1c(-c2ccccc2)no[n+]1[O-]` [4-Phenyl-3-furoxancarbonitrile] registered a mean under setting [4] of 2.827. The same compound returned a Replicate_1 under setting [5] of 3.156. The compound further displayed a Replicate_2 under setting [6] of 2.497.

`O=C(Nc1cc(C(=O)Nc2ccc(S(=O)(=O)[O-])cc2S(=O)(=O)[O-])cc(C(=O)Nc2ccc(S(=O)(=O)[O-])cc2S(=O)(=O)[O-])c1)Nc1cc(C(=O)Nc2ccc(S(=O)(=O)[O-])cc2S(=O)(=O)[O-])cc(C(=O)Nc2ccc(S(=O)(=O)[O-])cc2S(=O)(=O)[O-])c1.[Na+].[Na+].[Na+].[Na+].[Na+].[Na+].[Na+].[Na+]` [NF449 octasodium salt] returned a mean (sheet LOPAC_screen_w_protease, primary screen of LOPAC1280 at 5 µM with protease, mean of the two replicates) of 4.044. Further, for the setting “sheet LOPAC_screen_w_protease, primary screen of LOPAC1280 at 5 µM with protease, replicate 1”, the Replicate_1 stood at 4.589. Further, the Replicate_2 (sheet LOPAC_screen_w_protease, primary screen of LOPAC1280 at 5 µM with protease, replicate 2) was determined as 3.499.

Take `NS(=O)(=O)c1cccc2c1c([N+](=O)[O-])cc1nc([O-])c([O-])nc12.[Na+].[Na+]` [NBQX disodium]: under “sheet LOPAC_screen_w_protease, primary screen at 5 µM, mean of two replicates”, the “mean (LOPAC screen with protease)” value came to 8.586. Moreover, the “Replicate_1 (LOPAC screen with protease)” value (sheet LOPAC_screen_w_protease, primary screen at 5 µM, replicate 1) came out at 5.7201. Also, for the setting “sheet LOPAC_screen_w_protease, primary screen at 5 µM, replicate 2”, the “Replicate_2 (LOPAC screen with protease)” value is 11.4514.

For `Nc1nnc(-c2cccc(Cl)c2Cl)c(N)n1` [Lamotrigine], the inhibition at 5 µM turned out to be 1.42% under setting [7] and 1.78% under setting [8]. In addition, the “mean (LOPAC_screen_w_protease)” value under setting [9] is 1.603.

Regarding `C1CCc2nnnn2CC1` [Pentylenetetrazole], the inhibition at 5 µM amounted to 0.452% under setting [7] and 2.75% under setting [8]. Moreover, under setting [9], the “mean (LOPAC_screen_w_protease)” value worked out at 1.601.

Consider `COC(=O)C1=C(C)NC(C)=C(C(=O)OC)C1c1ccccc1[N+](=O)[O-]` [Nifedipine], for which the inhibition at 5 µM (sheet LOPAC_screen_w_protease, primary screen at 5 µM, mean of two replicates, read-out: mean (LOPAC screen with protease)) came to 14.6%; the inhibition at 5 µM (sheet LOPAC_screen_w_protease, primary screen at 5 µM, replicate 1, read-out: Replicate_1 (LOPAC screen with protease)) was 13.8%; the inhibition at 5 µM (sheet LOPAC_screen_w_protease, primary screen at 5 µM, replicate 2, read-out: Replicate_2 (LOPAC screen with protease)) is 15.5%.

With `OC[C@H]1O[C@@H](n2cnc3c(N[C@H]4CC5CCC4C5)ncnc32)[C@H](O)[C@@H]1O` (stereo partly drawn) [(S)-ENBA], the mean under setting [4] turned out to be 2.65. The compound also came in with a Replicate_1 under setting [5] of 4.26. The compound further yielded a Replicate_2 under setting [6] of 1.041.

With `CC1=C[C@@H]2c3cccc4[nH]cc(c34)C[C@H]2N(C)C1` [Agroclavine], the inhibition at 5 µM reads like this: (sheet LOPAC_screen_w_protease, primary screen of LOPAC1280 at 5 µM with protease, mean of the two replicates, read-out: mean) 3.47%; (sheet LOPAC_screen_w_protease, primary screen of LOPAC1280 at 5 µM with protease, replicate 1, read-out: Replicate_1) 3.6%; (sheet LOPAC_screen_w_protease, primary screen of LOPAC1280 at 5 µM with protease, replicate 2, read-out: Replicate_2) 3.34%.

As to `NCCCNCCCCNCCCN` [Spermine tetrahydrochloride], the inhibition at 5 µM is 3.94% (read-out: Replicate_1), 4.24% (read-out: Replicate_2) and 4.09% (read-out: mean).

Under setting [10], `Cl.NCCc1ccc(O)cc1` [4-Hydroxyphenethylamine hydrochloride] returned a mean of 0.878. The compound also came in with a Replicate_1 under setting [11] of 0.5582. Further, the Replicate_2 under setting [12] is recorded as 1.1978.

Take `NC(=O)c1cc(N2CC2)c([N+](=O)[O-])cc1[N+](=O)[O-]` [CB 1954]: the inhibition at 5 µM was 0.308% under setting [7] and 3.06% under setting [8]. Further, the “mean (LOPAC_screen_w_protease)” value under setting [9] is reported as 1.686.

As for `NC/C=C\C(=O)O` [cis-4-Aminocrotonic acid], the mean (sheet LOPAC_screen_w_protease, primary screen with protease, mean of two replicates) was determined as 2.546. This compound returned a Replicate_1 (sheet LOPAC_screen_w_protease, primary screen with protease, replicate 1) of 3.312. Where the note is “sheet LOPAC_screen_w_protease, primary screen with protease, replicate 2”, the Replicate_2 worked out at 1.781.

In turn, `Cl.NCCCCNS(=O)(=O)c1ccc2c(Cl)cccc2c1` came in with a mean under setting [10] of 0.6799. This compound also came in with a Replicate_1 under setting [11] of 0.88. The compound also had a Replicate_2 under setting [12] of 0.4798.

In turn, `O=c1onc2cnc3ccccc3n12` [ODQ] registered a mean under setting [4] of 2.809. This compound also had a Replicate_1 under setting [5] of 2.693. This compound also gave a Replicate_2 under setting [6] of 2.926.

`S=C=Nc1ccc2oc(C3=NCCN3)cc2c1` [BU99006] returned a Replicate_1 of 4.032, a Replicate_2 of 1.831 and a mean of 2.931.

`N#CC(=Cc1c[nH]c2ccccc12)C(=O)c1ccc(O)c(O)c1` [Tyrphostin AG 808]: where the note is “LOPAC1280 primary screen with protease, 5 µM compound, mean of the two replicates”, the “mean (LOPAC_screen_w_protease)” value was found to be 1.999. The “Replicate_1 (LOPAC_screen_w_protease)” value (LOPAC1280 primary screen with protease, 5 µM compound, replicate 1) was found to be 2.979. For the same compound, the “Replicate_2 (LOPAC_screen_w_protease)” value (LOPAC1280 primary screen with protease, 5 µM compound, replicate 2) was found to be 1.0189.

Regarding `NC(=O)c1cc[n+](CC2=C(C(=O)[O-])N3C(=O)[C@@H](NC(=O)C(c4ccccc4)S(=O)(=O)[O-])[C@H]3SC2)cc1.O.[Na+]` (stereo partly drawn) [Cefsulodin sodium salt hydrate], the mean under setting [4] turned out to be 2.816. The Replicate_1 under setting [5] worked out at 2.052. Besides, the Replicate_2 under setting [6] is given as 3.58.

As for `O=C1CCC(c2ccc(-n3ccnc3)cc2)=NN1` [Imazodan], the inhibition at 5 µM runs as follows: under setting [1], -0.683%; under setting [2], 0.89%; under setting [3], -2.26%.

Regarding `CNCCCN1c2ccccc2CCc2ccccc21` [Desipramine hydrochloride], the “mean (LOPAC_screen_w_protease)” value is listed as 1.646. Moreover, the inhibition at 5 µM (read-out: Replicate_1 (LOPAC_screen_w_protease)) stood at 1.71%. The inhibition at 5 µM (read-out: Replicate_2 (LOPAC_screen_w_protease)) turned out to be 1.58%.
